# Data taken from paper PMC8632988, “Inhibition of SYK and cSrc kinases can protect bone and cartilage in preclinical models of osteoarthritis and rheumatoid arthritis” (Scientific Reports, 2021).
# Key:
# Test in all cases: Kinase selectivity profile assay
# Assay type in all cases: biochemical
# SGK3/SGKL = target: T1, SGK3/SGKL (Homo sapiens, UniProt Q96BR1); settings: 500 nM; relative to DMSO; read-out: Residual enzymatic activity
# T1 construct: purchased Reaction Biology Corporation
# Method in brief: (§1)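 Radiometric kinase assay run by a standard protocol. Unbound phosphate was removed by washing filters in phosphoric acid, and product radioactivity gave percent remaining kinase activity versus DMSO vehicle reactions. Run in duplicate.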
# MST1/STK4 = target: T2, MST1/STK4 (Homo sapiens, UniProt Q13043); settings: 500 nM; relative to DMSO; read-out: Residual enzymatic activity
# T2 construct: purchased Reaction Biology Corporation
# Method in brief: as §1
# MEKK1 = target: T3, MEKK1 (Homo sapiens, UniProt Q13233); settings: 500 nM; relative to DMSO; read-out: Residual enzymatic activity
# T3 construct: purchased Reaction Biology Corporation
# Method in brief: as §1
# RSK4 = target: T4, RSK4 (Homo sapiens, UniProt Q9UK32); settings: 500 nM; relative to DMSO; read-out: Residual enzymatic activity
# T4 construct: purchased Reaction Biology Corporation
# T4 sequence (Q9UK32 whole entry): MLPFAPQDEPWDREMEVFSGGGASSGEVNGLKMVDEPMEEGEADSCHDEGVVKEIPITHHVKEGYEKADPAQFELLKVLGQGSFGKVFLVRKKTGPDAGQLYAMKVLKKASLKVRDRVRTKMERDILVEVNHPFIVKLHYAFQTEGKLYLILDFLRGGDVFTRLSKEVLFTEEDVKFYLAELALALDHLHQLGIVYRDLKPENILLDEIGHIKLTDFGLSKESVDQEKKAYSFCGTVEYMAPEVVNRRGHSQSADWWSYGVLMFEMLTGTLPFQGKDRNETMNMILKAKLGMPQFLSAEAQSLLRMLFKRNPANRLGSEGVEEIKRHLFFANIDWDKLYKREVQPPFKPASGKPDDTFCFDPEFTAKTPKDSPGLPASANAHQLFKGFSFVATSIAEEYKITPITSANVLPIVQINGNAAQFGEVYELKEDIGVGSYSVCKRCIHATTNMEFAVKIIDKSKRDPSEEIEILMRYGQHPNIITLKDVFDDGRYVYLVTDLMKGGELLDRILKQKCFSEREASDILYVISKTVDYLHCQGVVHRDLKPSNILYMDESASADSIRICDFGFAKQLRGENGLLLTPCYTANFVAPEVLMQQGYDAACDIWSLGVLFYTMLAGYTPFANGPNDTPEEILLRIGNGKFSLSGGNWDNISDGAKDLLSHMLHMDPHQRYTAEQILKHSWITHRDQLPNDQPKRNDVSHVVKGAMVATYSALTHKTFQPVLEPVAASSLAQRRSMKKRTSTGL
# Method in brief: as §1
# CDK1/cyclin E = target: T5, CDK1/cyclin E (Homo sapiens, UniProt P06493); settings: 500 nM; relative to DMSO; read-out: Residual enzymatic activity
# T5 construct: purchased Reaction Biology Corporation
# Method in brief: as §1
# FAK/PTK2 = target: T6, FAK/PTK2 (Homo sapiens, UniProt Q05397); settings: 500 nM; relative to DMSO; read-out: Residual enzymatic activity
# T6 construct: purchased Reaction Biology Corporation
# Method in brief: as §1
# MRCKb/CDC42BPB = target: T7, MRCKb/CDC42BPB (Homo sapiens, UniProt Q9Y5S2); settings: read-out: Residual enzymatic activity
# T7 construct: purchased Reaction Biology Corporation
# Method in brief: as §1
# MLK2/MAP3K10 = target: T8, MLK2/MAP3K10 (Homo sapiens, UniProt Q02779); settings: 500 nM; relative to DMSO; read-out: Residual enzymatic activity
# T8 construct: purchased Reaction Biology Corporation (assay service)
# Method in brief: as §1
# DYRK2 = target: T9, DYRK2 (Homo sapiens, UniProt Q92630); settings: 500 nM; relative to DMSO; read-out: Residual enzymatic activity
# T9 construct: purchased Reaction Biology Corporation
# Method in brief: as §1
# PDK1/PDPK1 = target: T10, PDK1/PDPK1 (Homo sapiens, UniProt O15530); settings: 500 nM; relative to DMSO; read-out: Residual enzymatic activity
# T10 construct: purchased Reaction Biology Corporation
# Method in brief: as §1
# p70S6Kb/RPS6KB2 = target: T11, p70S6Kb/RPS6KB2 (Homo sapiens, UniProt Q9UBS0); settings: 500 nM; relative to DMSO; read-out: Residual enzymatic activity
# T11 construct: purchased Reaction Biology Corporation
# Method in brief: as §1
# LIMK1 = target: T12, LIMK1 (Homo sapiens, UniProt P53667); settings: 500 nM; relative to DMSO; read-out: Residual enzymatic activity
# T12 construct: purchased Reaction Biology Corporation (assay service)
# T12 sequence (P53667 whole entry): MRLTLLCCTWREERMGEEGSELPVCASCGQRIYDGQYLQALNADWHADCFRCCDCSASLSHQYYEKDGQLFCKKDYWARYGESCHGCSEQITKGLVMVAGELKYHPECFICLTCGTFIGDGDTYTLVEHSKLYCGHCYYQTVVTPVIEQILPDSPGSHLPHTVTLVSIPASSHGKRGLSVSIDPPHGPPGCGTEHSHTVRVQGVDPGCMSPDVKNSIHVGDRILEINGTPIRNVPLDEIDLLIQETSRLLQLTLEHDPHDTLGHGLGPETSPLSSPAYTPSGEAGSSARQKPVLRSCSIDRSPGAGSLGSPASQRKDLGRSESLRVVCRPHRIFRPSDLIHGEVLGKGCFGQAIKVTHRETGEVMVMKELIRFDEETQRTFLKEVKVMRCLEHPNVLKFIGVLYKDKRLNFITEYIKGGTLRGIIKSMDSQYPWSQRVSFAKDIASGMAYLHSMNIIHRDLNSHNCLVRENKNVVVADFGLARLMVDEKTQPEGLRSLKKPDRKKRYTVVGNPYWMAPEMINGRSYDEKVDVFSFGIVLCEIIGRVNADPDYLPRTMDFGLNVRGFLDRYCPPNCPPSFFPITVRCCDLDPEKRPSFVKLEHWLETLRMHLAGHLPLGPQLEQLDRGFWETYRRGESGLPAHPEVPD
# Method in brief: as §1
# CDK1/cyclin A = target: T13, CDK1/cyclin A (Homo sapiens, UniProt P06493); settings: 500 nM; relative to DMSO; read-out: Residual enzymatic activity
# T13 construct: purchased Reaction Biology Corporation
# Method in brief: as §1
# PIM2 = target: T14, PIM2 (Homo sapiens, UniProt Q9P1W9); settings: 500 nM; relative to DMSO; read-out: Residual enzymatic activity
# T14 construct: purchased Reaction Biology Corporation
# Method in brief: as §1
# MUSK = target: T15, MUSK (Homo sapiens, UniProt O15146); settings: 500 nM; relative to DMSO; read-out: Residual enzymatic activity
# T15 construct: purchased Reaction Biology Corporation
# Method in brief: as §1
# WNK1 = target: T16, WNK1 (Homo sapiens, UniProt Q9H4A3); settings: 500 nM; relative to DMSO; read-out: Residual enzymatic activity
# T16 construct: purchased Reaction Biology Corporation
# Method in brief: as §1
# AKT2 = target: T17, AKT2 (Homo sapiens, UniProt P31751); settings: 500 nM; relative to DMSO; read-out: Residual enzymatic activity
# T17 construct: purchased Reaction Biology Corporation
# Method in brief: as §1
# FER = target: T18, FER (Homo sapiens, UniProt P16591); settings: 500 nM; relative to DMSO; read-out: Residual enzymatic activity
# T18 construct: purchased Reaction Biology Corporation
# T18 sequence (P16591 whole entry): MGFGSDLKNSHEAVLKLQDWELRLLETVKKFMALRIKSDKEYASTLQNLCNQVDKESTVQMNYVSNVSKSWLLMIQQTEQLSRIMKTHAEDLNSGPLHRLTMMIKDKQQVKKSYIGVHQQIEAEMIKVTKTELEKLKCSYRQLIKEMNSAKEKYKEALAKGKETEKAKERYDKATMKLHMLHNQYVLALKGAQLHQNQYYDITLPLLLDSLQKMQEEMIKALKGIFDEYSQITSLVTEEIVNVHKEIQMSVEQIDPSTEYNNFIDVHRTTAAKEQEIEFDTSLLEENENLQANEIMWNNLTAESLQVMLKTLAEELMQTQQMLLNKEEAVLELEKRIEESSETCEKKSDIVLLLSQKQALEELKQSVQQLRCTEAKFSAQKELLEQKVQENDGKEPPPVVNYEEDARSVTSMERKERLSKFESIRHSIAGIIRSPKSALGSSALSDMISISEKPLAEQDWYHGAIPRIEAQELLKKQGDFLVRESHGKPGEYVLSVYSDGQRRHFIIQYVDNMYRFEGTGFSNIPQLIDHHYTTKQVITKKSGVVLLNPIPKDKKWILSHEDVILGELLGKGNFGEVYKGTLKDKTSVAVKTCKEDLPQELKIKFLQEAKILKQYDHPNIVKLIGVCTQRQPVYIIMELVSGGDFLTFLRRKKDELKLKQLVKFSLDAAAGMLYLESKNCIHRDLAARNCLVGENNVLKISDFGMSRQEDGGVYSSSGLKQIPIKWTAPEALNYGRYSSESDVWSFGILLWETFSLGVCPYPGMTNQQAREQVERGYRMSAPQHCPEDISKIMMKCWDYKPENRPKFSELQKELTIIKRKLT
# Method in brief: as §1
# ERK7/MAPK15 = target: T19, ERK7/MAPK15 (Homo sapiens, UniProt Q8TD08); settings: read-out: Residual enzymatic activity
# T19 construct: purchased Reaction Biology Corporation
# Method in brief: as §1
# TAOK2/TAO1 = target: T20, TAOK2/TAO1 (Homo sapiens, UniProt Q9UL54); settings: 500 nM; relative to DMSO; read-out: Residual enzymatic activity
# T20 construct: purchased Reaction Biology Corporation
# Method in brief: as §1
# MEK1 = target: T21, MEK1 (Homo sapiens, UniProt Q02750); settings: 500 nM; relative to DMSO; read-out: Residual enzymatic activity
# T21 construct: purchased Reaction Biology Corporation
# T21 sequence (Q02750 whole entry): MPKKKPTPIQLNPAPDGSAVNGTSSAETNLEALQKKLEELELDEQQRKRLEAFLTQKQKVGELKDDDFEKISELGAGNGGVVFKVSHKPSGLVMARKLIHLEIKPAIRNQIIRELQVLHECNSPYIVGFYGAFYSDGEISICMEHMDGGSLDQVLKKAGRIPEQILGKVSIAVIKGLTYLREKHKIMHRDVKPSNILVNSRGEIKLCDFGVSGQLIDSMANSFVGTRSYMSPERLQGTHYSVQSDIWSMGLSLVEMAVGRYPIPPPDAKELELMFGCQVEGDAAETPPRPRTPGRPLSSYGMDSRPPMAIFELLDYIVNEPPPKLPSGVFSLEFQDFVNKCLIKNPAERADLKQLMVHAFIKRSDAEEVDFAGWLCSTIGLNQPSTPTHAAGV
# Method in brief: as §1
# ROCK1 = target: T22, ROCK1 (Homo sapiens, UniProt Q13464); settings: 500 nM; relative to DMSO; read-out: Residual enzymatic activity
# T22 construct: purchased Reaction Biology Corporation
# Method in brief: as §1
# TNIK = target: T23, TNIK (Homo sapiens, UniProt Q9UKE5); settings: 500 nM; relative to DMSO; read-out: Residual enzymatic activity
# T23 construct: purchased Reaction Biology Corporation
# Method in brief: as §1
# ZAP70 = target: T24, ZAP70 (Homo sapiens, UniProt P43403); settings: 500 nM; relative to DMSO; read-out: Residual enzymatic activity
# T24 construct: purchased Reaction Biology Corporation
# Method in brief: as §1
# LATS1 = target: T25, LATS1 (Homo sapiens, UniProt O95835); settings: 500 nM; relative to DMSO; read-out: Residual enzymatic activity
# T25 construct: purchased Reaction Biology Corporation
# Method in brief: as §1
# EPHA7 = target: T26, EPHA7 (Homo sapiens, UniProt Q15375); settings: 500 nM; relative to DMSO; read-out: Residual enzymatic activity
# T26 construct: purchased Reaction Biology Corporation
# Method in brief: as §1
# CDK16/cyclin Y = target: T27, CDK16/cyclin Y (Homo sapiens, UniProt Q00536); settings: 500 nM; relative to DMSO; read-out: Residual enzymatic activity
# T27 construct: purchased Reaction Biology Corporation
# Method in brief: as §1
# BTK = target: T28, BTK (Homo sapiens, UniProt Q06187); settings: 500 nM; relative to DMSO; read-out: Residual enzymatic activity
# T28 construct: purchased Reaction Biology Corporation
# T28 sequence (Q06187 whole entry): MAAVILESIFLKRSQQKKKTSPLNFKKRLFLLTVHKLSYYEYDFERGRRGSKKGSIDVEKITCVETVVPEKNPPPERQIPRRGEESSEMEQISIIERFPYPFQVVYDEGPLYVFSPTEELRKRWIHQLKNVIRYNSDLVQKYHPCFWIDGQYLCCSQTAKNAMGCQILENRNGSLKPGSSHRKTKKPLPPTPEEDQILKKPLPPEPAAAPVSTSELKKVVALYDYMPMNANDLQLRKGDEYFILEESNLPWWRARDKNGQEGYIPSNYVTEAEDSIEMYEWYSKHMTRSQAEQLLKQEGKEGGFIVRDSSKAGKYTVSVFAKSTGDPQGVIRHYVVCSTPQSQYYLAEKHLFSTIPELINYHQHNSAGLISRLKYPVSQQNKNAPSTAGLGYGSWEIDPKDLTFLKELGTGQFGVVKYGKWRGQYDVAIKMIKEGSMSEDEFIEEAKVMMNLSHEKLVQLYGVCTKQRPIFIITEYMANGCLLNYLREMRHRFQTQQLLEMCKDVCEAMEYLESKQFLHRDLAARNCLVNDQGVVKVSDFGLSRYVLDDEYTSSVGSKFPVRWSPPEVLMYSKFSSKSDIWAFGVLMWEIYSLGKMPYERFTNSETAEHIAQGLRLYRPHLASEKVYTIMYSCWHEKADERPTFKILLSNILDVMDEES
# Method in brief: as §1
# MARK4 = target: T29, MARK4 (Homo sapiens, UniProt Q96L34); settings: 500 nM; relative to DMSO; read-out: Residual enzymatic activity
# T29 construct: purchased Reaction Biology Corporation
# Method in brief: as §1
# GRK6 = target: T30, GRK6 (Homo sapiens, UniProt P43250); settings: 500 nM; relative to DMSO; read-out: Residual enzymatic activity
# T30 construct: purchased Reaction Biology Corporation
# Method in brief: as §1
# SNARK/NUAK2 = target: T31, SNARK/NUAK2 (Homo sapiens, UniProt Q9H093); settings: 500 nM; relative to DMSO; read-out: Residual enzymatic activity
# T31 construct: purchased Reaction Biology Corporation
# Method in brief: as §1
# MSSK1/STK23 = target: T32, MSSK1/STK23 (Homo sapiens, UniProt Q9UPE1); settings: 500 nM; relative to DMSO; read-out: Residual enzymatic activity
# T32 construct: purchased Reaction Biology Corporation
# T32 sequence (Q9UPE1 whole entry): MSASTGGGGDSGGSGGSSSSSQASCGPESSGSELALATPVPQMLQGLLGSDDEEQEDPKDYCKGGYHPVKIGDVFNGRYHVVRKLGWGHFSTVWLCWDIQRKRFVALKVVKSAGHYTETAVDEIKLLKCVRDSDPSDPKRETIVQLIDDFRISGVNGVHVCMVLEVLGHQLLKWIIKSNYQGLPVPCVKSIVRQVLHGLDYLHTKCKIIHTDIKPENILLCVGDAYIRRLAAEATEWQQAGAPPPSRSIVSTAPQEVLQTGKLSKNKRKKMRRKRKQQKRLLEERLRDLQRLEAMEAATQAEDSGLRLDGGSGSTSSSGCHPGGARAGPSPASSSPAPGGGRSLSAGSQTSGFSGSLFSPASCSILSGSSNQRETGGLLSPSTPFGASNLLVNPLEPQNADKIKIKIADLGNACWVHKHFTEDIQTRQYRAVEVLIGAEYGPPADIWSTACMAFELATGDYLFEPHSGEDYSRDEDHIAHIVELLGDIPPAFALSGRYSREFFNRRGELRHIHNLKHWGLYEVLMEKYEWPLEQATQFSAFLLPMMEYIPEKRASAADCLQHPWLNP
# Method in brief: as §1
# PDGFRb = target: T33, PDGFRb (Homo sapiens, UniProt P09619); settings: 500 nM; relative to DMSO; read-out: Residual enzymatic activity
# T33 construct: purchased Reaction Biology Corporation (Malvern, PA, USA)
# Method in brief: as §1
# CK1g1 = target: T34, CK1g1 (Homo sapiens, UniProt Q9HCP0); settings: 500 nM; relative to DMSO; read-out: Residual enzymatic activity
# T34 construct: purchased Reaction Biology Corporation
# T34 sequence (Q9HCP0 whole entry): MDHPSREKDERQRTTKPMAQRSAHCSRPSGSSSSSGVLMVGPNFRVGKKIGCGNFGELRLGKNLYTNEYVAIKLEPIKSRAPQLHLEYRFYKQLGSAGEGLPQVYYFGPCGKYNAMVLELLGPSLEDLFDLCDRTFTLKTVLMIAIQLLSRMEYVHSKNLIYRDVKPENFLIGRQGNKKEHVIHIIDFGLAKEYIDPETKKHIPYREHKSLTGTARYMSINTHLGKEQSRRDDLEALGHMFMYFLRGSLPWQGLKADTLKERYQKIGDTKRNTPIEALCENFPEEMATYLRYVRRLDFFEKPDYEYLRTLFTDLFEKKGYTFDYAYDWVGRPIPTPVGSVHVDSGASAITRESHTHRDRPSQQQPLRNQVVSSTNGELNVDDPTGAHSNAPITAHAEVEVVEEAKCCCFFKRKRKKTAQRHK
# Method in brief: as §1
# p70S6K/RPS6KB1 = target: T35, p70S6K/RPS6KB1 (Homo sapiens, UniProt P23443); settings: 500 nM; relative to DMSO; read-out: Residual enzymatic activity
# T35 construct: purchased Reaction Biology Corporation
# Method in brief: as §1
# ERK1 = target: T36, ERK1 (Homo sapiens, UniProt P27361); settings: 500 nM; relative to DMSO; read-out: Residual enzymatic activity
# T36 construct: purchased Reaction Biology Corporation
# Method in brief: as §1
# DYRK3 = target: T37, DYRK3 (Homo sapiens, UniProt O43781); settings: 500 nM; relative to DMSO; read-out: Residual enzymatic activity
# T37 construct: purchased Reaction Biology Corporation
# Method in brief: as §1
# EPHA3 = target: T38, EPHA3 (Homo sapiens, UniProt P29320); settings: 500 nM; relative to DMSO; read-out: Residual enzymatic activity
# T38 construct: purchased Reaction Biology Corporation
# Method in brief: as §1
# CDK5/p35 = target: T39, CDK5/p35 (Homo sapiens, UniProt Q00535); settings: 500 nM; relative to DMSO; read-out: Residual enzymatic activity
# T39 construct: purchased Reaction Biology Corporation
# T39 sequence (Q00535 whole entry): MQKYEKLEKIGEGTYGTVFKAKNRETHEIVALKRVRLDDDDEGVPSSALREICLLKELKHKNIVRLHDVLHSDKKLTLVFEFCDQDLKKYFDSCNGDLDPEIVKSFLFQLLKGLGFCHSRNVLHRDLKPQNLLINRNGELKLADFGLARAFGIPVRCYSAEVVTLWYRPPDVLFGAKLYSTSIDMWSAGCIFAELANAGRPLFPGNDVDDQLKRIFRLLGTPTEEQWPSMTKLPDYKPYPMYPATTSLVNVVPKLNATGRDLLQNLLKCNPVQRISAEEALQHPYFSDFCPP
# T39 sequence (Q15078 whole entry partner): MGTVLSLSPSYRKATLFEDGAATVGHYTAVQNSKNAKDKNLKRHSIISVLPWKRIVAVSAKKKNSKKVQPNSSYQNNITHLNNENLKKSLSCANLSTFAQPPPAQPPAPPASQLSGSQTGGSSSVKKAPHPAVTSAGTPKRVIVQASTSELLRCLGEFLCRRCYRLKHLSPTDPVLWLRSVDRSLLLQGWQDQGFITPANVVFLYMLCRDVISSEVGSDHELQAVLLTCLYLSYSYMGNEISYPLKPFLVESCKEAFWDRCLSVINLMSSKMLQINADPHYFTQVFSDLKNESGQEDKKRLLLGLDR
# Method in brief: as §1
smiles,measurement,setting,value
"COc1cc(Nc2ncc(F)c(Nc3ccc4c(n3)NC(=O)C(C)(C)O4)n2)cc(OC)c1OC [R406, reference compound]",remaining activity at 0.5 µM,SGK3/SGKL,100%
same,remaining activity at 0.5 µM,MST1/STK4,86.3%
same,remaining activity at 0.5 µM,MEKK1,100%
same,remaining activity at 0.5 µM,RSK4,45.6%
same,remaining activity at 0.5 µM,CDK1/cyclin E,76.5%
same,remaining activity at 0.5 µM,FAK/PTK2,29.7%
same,remaining activity at 0.5 µM,MRCKb/CDC42BPB,105%
same,remaining activity at 0.5 µM,MLK2/MAP3K10,1.1%
same,remaining activity at 0.5 µM,DYRK2,64.1%
same,remaining activity at 0.5 µM,PDK1/PDPK1,30.7%
same,remaining activity at 0.5 µM,p70S6Kb/RPS6KB2,74.6%
same,remaining activity at 0.5 µM,LIMK1,7.2%
same,remaining activity at 0.5 µM,CDK1/cyclin A,74.2%
same,remaining activity at 0.5 µM,PIM2,95.6%
same,remaining activity at 0.5 µM,MUSK,62.1%
same,remaining activity at 0.5 µM,WNK1,103%
same,remaining activity at 0.5 µM,AKT2,110%
same,remaining activity at 0.5 µM,FER,22.9%
same,remaining activity at 0.5 µM,ERK7/MAPK15,77.1%
same,remaining activity at 0.5 µM,TAOK2/TAO1,47.4%
same,remaining activity at 0.5 µM,MEK1,87.2%
same,remaining activity at 0.5 µM,ROCK1,87%
same,remaining activity at 0.5 µM,TNIK,83.1%
same,remaining activity at 0.5 µM,ZAP70,43.5%
same,remaining activity at 0.5 µM,LATS1,79.6%
same,remaining activity at 0.5 µM,EPHA7,10.5%
same,remaining activity at 0.5 µM,CDK16/cyclin Y,63.3%
same,remaining activity at 0.5 µM,BTK,28.8%
same,remaining activity at 0.5 µM,MARK4,46.7%
same,remaining activity at 0.5 µM,GRK6,92.7%
same,remaining activity at 0.5 µM,SNARK/NUAK2,59.7%
same,remaining activity at 0.5 µM,MSSK1/STK23,107%
same,remaining activity at 0.5 µM,PDGFRb,6.1%
same,remaining activity at 0.5 µM,CK1g1,92.7%
same,remaining activity at 0.5 µM,p70S6K/RPS6KB1,49.1%
same,remaining activity at 0.5 µM,ERK1,97.4%
same,remaining activity at 0.5 µM,DYRK3,90.6%
same,remaining activity at 0.5 µM,EPHA3,85.6%
same,remaining activity at 0.5 µM,CDK5/p35,82.9%
